According to ChEMBL document CHEMBL2177007, “Indole-derived psammaplin A analogues as epigenetic modulators with multiple inhibitory activities” (J Med Chem, 2012):
Calls of active or inactive are those of the source. The rule behind the calls is not given here.

How the values were obtained:
[1] = biological target: T1, Protein deacetylase HDAC6 (Homo sapiens) (UniProt Q9UBN7); test: Inhibition of HDAC6 in human U937 cells assessed as induction of alpha-tubulin acetylation at 5 uM after 30 hrs by cytofluorimetric analysis; type: cell-based; details: U-937
T1 sequence (whole entry): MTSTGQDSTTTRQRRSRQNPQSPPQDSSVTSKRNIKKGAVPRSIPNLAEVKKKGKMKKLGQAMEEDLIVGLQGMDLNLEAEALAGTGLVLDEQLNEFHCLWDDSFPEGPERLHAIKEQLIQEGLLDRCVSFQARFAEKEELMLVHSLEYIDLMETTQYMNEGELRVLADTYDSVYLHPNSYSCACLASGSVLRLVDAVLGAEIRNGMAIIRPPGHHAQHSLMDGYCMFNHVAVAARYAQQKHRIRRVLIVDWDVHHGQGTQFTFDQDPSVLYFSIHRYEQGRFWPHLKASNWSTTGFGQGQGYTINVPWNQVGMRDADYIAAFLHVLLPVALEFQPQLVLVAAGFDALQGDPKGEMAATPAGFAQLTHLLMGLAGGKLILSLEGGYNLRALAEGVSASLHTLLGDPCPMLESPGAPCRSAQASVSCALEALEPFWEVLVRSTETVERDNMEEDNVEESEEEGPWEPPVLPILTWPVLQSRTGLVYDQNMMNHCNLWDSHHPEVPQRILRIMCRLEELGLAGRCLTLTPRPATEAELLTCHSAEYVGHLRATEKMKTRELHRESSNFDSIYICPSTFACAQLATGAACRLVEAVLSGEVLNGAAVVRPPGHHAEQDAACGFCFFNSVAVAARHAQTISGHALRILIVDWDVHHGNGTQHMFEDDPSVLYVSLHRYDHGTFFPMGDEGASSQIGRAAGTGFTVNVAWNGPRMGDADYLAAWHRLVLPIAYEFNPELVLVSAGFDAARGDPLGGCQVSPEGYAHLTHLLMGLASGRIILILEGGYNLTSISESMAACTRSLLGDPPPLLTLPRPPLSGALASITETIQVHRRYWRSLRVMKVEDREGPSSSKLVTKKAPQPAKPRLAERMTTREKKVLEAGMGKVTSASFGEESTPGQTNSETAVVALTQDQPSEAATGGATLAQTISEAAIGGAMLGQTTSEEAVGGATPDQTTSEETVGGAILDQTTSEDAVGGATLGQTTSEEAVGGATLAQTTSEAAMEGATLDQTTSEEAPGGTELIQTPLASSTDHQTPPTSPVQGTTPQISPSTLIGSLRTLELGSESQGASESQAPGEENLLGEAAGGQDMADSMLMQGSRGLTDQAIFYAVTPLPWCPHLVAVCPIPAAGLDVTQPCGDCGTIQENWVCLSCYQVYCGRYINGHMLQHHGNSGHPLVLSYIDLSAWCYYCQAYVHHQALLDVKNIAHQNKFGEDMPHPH

[2] = biological target: T2, NAD-dependent protein deacetylase sirtuin-1 (Homo sapiens) (UniProt Q96EB6); test: Inhibition of human recombinant SIRT1 using KI-177 as substrate at 5 uM after 30 mins by fluorescence assay
T2 sequence (whole entry): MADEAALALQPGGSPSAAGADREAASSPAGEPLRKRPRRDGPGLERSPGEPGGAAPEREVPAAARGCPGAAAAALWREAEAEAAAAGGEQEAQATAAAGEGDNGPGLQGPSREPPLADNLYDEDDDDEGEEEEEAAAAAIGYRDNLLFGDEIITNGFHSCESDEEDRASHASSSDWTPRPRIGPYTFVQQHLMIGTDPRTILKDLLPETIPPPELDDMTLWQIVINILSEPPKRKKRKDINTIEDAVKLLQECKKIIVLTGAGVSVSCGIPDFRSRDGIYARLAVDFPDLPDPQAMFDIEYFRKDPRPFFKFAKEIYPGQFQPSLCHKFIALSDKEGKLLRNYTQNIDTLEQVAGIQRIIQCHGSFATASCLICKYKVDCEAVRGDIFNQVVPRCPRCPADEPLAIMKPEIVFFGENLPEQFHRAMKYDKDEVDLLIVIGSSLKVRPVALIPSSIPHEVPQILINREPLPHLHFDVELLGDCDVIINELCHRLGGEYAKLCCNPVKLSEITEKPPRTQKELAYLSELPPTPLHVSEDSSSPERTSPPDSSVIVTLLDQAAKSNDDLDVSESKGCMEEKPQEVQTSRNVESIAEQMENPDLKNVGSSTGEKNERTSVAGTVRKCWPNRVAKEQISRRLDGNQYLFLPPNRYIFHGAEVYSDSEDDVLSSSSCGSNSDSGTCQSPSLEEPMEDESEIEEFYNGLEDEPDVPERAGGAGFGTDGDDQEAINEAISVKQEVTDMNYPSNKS

U-937 [3] = test: Effect on DNMT1 level in human U937 cells at 0.5 to 5 uM after 24 hrs by Western blot analysis; type: functional, cell-based
[4] = biological target: T2, NAD-dependent protein deacetylase sirtuin-1 (Homo sapiens); test: Inhibition of SIRT1 in human U937 cells assessed as H3 acetylation on lysine K56 at 5 uM after 24 hrs by Western blot analysis; type: cell-based; details: U-937
[5] = biological target: T2, NAD-dependent protein deacetylase sirtuin-1 (Homo sapiens); test: Inhibition of SIRT1 in human U937 cells assessed as H3 acetylation on lysine K9 at 5 uM after 24 hrs by Western blot analysis; type: cell-based; details: U-937
[6] = biological target: DNA (cytosine-5)-methyltransferase 1 (Homo sapiens) (UniProt P26358); test: Inhibition of recombinant DNMT1 using S-adenosyl-L-[methyl-3H]methionine as substrate at 5 uM after 2 hrs by radioactive assay
[7] = biological target: Histone deacetylase 1 (Homo sapiens) (UniProt Q13547); test: Inhibition of HDAC1 in human U937 cells at 5 uM […]; type: cell-based; details: U-937
[8] = biological target: DNA (cytosine-5)-methyltransferase 1 (Homo sapiens) (UniProt P26358); test: Inhibition of DNMT1 human u937 cells assessed as reactivation of p16 expression at 0.5 to 5 uM after 24 hrs by Western blot analysis
[9] = biological target: Histone deacetylase 4 (Homo sapiens) (UniProt P56524); test: Inhibition of HDAC4 in human U937 cells at 5 uM […]; type: cell-based; details: U-937
U-937 [10] = test: Induction of apoptosis in human U937 cells at 5 uM after 30 hrs; type: functional, cell-based
[11] = biological target: Protein kinase C alpha type (Homo sapiens) (UniProt P17252); test: Inhibition of PKCalpha in human U937 cells assessed as p21WAF1/CIP1 expression at 5 uM after 30 hrs by cytofluorimetric analysis; type: cell-based; details: U-937
[12] = biological target: Histone deacetylase (Homo sapiens) (UniProt Q13547+O15379+Q9UBN7+Q92769+Q9UQL6+Q8WUI4+Q9BY41+Q96DB2+P56524+Q9UKV0+Q969S8); test: Inhibition of HDAC in human U937 cells assessed as induction of histone H3 acetylation at 5 uM after 30 hrs by cytofluorimetric analysis; type: cell-based; details: U-937
[13] = biological target: T2, NAD-dependent protein deacetylase sirtuin-1 (Homo sapiens); test: Inhibition of SIRT1 in human MCF7 cells assessed as p53 acetylation on lysine 382 after 24 hrs by Western blot analysis; type: cell-based
U-937 [14] = test: Induction of cell differentiation in human U937 cells assessed as CD11c expression at 5 uM after 30 hrs by cytofluorimetric analysis; type: functional, cell-based
[15] = biological target: T2, NAD-dependent protein deacetylase sirtuin-1 (Homo sapiens); test: Inhibition of SIRT1 in human MCF7 cells assessed as p53 acetylation on lysine 382 at 5 uM after 24 hrs by Western blot analysis; type: cell-based
[16] = biological target: DNA (cytosine-5)-methyltransferase 1 (Homo sapiens) (UniProt P26358); test: Inhibition of DNMT1 human U937 cells assessed as reactivation of p16 expression at 5 uM after 24 hrs by Western blot analysis; type: cell-based; details: U-937

Chain of DNA (cytosine-5)-methyltransferase 1 (Homo sapiens) (P26358 whole entry): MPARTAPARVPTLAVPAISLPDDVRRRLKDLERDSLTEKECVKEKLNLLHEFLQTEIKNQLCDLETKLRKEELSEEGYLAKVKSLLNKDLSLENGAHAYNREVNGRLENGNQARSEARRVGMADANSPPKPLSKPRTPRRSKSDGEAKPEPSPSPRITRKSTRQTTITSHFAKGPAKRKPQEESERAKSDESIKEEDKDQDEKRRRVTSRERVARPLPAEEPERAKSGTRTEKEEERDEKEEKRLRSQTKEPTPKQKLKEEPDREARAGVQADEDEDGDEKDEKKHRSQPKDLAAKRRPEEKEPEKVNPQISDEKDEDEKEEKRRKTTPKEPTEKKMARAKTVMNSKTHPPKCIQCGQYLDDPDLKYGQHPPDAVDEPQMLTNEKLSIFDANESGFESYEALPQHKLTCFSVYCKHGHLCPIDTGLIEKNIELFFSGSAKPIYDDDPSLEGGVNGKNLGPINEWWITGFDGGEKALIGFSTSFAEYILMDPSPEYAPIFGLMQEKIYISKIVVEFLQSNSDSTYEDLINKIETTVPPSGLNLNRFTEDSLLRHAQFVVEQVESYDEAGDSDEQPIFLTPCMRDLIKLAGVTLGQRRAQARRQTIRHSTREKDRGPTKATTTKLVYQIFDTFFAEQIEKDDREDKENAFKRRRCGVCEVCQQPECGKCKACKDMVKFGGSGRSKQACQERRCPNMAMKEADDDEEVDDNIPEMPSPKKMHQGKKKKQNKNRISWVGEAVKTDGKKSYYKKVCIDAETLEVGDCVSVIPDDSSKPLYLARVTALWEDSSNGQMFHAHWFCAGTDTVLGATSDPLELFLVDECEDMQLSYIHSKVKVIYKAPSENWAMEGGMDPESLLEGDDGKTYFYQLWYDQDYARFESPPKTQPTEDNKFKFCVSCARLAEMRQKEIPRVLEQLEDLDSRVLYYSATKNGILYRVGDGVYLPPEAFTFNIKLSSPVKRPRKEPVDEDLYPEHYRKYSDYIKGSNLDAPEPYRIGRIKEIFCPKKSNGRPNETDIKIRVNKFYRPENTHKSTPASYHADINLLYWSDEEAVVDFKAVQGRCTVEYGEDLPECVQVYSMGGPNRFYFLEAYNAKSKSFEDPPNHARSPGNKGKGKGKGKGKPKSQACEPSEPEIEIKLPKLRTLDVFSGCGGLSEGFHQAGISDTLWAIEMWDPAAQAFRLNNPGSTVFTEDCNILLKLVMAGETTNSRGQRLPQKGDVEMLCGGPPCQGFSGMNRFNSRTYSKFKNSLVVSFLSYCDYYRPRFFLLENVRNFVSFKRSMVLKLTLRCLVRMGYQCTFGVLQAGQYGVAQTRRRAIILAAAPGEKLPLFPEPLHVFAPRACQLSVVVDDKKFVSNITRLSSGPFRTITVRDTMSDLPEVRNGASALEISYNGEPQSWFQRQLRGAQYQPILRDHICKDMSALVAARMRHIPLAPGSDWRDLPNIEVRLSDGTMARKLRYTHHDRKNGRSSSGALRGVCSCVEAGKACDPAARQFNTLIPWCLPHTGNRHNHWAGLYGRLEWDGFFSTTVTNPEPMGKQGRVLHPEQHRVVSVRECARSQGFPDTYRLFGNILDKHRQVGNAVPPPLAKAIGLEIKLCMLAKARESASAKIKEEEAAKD
Chain of Histone deacetylase 1 (Homo sapiens) (Q13547 whole entry): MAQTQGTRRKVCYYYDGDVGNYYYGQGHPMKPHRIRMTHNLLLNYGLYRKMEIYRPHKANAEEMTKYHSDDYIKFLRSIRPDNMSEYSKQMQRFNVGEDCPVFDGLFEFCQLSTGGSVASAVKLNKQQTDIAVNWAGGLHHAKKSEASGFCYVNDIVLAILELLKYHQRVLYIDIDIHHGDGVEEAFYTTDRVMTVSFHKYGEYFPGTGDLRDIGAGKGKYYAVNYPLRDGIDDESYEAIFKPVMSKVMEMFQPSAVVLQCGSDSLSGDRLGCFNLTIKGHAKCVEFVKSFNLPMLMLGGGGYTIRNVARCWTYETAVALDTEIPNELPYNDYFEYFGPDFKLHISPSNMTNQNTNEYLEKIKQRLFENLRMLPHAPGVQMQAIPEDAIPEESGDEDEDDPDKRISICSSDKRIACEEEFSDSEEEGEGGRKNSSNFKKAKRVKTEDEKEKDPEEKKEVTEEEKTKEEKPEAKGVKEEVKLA
Chain of Histone deacetylase 4 (Homo sapiens) (P56524 whole entry): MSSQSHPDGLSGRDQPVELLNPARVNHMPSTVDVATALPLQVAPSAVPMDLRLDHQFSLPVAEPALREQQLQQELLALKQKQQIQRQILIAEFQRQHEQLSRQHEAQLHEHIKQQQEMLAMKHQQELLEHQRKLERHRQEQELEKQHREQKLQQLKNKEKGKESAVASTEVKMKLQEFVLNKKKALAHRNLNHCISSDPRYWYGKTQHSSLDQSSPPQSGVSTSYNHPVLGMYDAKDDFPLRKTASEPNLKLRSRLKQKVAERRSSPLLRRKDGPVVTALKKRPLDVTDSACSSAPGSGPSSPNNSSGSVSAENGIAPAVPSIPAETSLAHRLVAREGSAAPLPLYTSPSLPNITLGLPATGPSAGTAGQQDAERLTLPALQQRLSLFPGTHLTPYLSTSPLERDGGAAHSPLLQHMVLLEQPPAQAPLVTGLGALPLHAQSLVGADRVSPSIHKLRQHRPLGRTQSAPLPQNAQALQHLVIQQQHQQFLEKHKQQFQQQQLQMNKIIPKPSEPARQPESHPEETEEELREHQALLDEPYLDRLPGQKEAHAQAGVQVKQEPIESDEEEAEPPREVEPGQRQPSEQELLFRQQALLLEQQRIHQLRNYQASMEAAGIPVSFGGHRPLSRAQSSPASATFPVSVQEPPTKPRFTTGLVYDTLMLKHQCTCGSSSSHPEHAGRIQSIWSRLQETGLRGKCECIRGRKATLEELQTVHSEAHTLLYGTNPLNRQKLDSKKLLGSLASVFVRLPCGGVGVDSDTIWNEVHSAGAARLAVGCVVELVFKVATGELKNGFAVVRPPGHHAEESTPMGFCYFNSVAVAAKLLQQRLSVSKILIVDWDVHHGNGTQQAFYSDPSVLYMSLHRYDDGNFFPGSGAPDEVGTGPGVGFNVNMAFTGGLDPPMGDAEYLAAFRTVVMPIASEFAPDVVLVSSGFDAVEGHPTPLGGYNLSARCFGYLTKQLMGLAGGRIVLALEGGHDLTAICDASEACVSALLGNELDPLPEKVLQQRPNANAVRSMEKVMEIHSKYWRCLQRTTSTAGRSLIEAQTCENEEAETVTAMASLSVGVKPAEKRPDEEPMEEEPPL

Row | inhibition [1] | inhibition [2] | inhibition [7] | inhibition [9] | inhibition [11] | inhibition [12] | Structure (SMILES) | Activity (U-937 [3]) | Activity (U-937 [10]) | other results
1 | Active | – | – | – | – | – | O=C(NCCSSCCNC(=O)/C(Cc1c[nH]c2ccc(Br)cc12)=N/OCc1ccccc1)/C(Cc1c[nH]c2ccc(Br)cc12)=N/OCc1ccccc1 | – | – | –
2 | Active | inactive | – | – | – | – | COCCNC(=O)/C(Cc1c[nH]c2ccc(Br)cc12)=N/O | inactive | – | inhibition [4]: inactive; inhibition [5]: inactive
3 | Active | – | Active | Active | – | – | CO/N=C(\Cc1c[nH]c2ccc(Br)cc12)C(=O)NCCSSCCNC(=O)/C(Cc1c[nH]c2ccc(Br)cc12)=N/OC | inactive | – | inhibition [6]: Active; inhibition [8]: Active
4 | Active | – | Active | – | Active | Active | O=C(CCc1c[nH]c2ccc(Br)cc12)NCCSSCCNC(=O)CCc1c[nH]c2ccc(Br)cc12 | inactive | Active | inhibition [6]: inactive; inhibition [13]: Dose-dependent effect
5 | – | – | – | – | – | – | O=C(O)[C@H](Cc1c[nH]c2ccccc12)N1C(=O)c2ccccc2C1=O | – | – | inhibition [6]: Active
6 | Active | – | – | – | – | – | O=C(NCCCSSCCCNC(=O)/C(Cc1c[nH]c2ccc(Br)cc12)=N/O)/C(Cc1c[nH]c2ccc(Br)cc12)=N/O | – | – | Activity (U-937 [14]): Active
7 | Active | – | – | – | – | – | Cn1cc(CCC(=O)NCCSSCCNC(=O)CCc2cn(C)c3ccc(Br)cc23)c2cc(Br)ccc21 | – | – | –
8 | Active | inactive | 40% | 20% | – | inactive | O=C(NCCCCSSCCCCNC(=O)/C(Cc1c[nH]c2ccc(Br)cc12)=N/O)/C(Cc1c[nH]c2ccc(Br)cc12)=N/O | inactive | Active | inhibition [8]: Active; inhibition [4]: Active; inhibition [5]: Active; inhibition [15]: inactive; Activity (U-937 [14]): Active
9 | inactive | – | Active | Active | inactive | inactive | O=C(NCCSSCCNC(=O)/C(Cc1c[nH]c2ccc(F)cc12)=N/O)/C(Cc1c[nH]c2ccc(F)cc12)=N/O | – | Active | –
10 | Active | Active | – | – | – | – | O=C(NCCSSCCNC(=O)/C(Cc1cn(Cc2ccc(Br)cc2)c2ccc(Br)cc12)=N/O)/C(Cc1cn(Cc2ccc(Br)cc2)c2ccc(Br)cc12)=N/O | inactive | – | inhibition [4]: Active; inhibition [5]: Active
11 | Active | – | Active | Active | Active | Active | O=C(NCCSSCCNC(=O)/C(Cc1c[nH]c2ccc(I)cc12)=N/O)/C(Cc1c[nH]c2ccc(I)cc12)=N/O | – | Active | –
12 | Active | – | Active | Active | Active | Active | O=C(NCCSSCCNC(=O)/C(Cc1c[nH]c2ccc(Cl)cc12)=N/O)/C(Cc1c[nH]c2ccc(Cl)cc12)=N/O | – | Active | –
13 | Active | Active | – | – | – | – | O=C(NCCCCCCCCNC(=O)/C(Cc1c[nH]c2ccc(Br)cc12)=N/O)/C(Cc1c[nH]c2ccc(Br)cc12)=N/O | inactive | – | inhibition [6]: inactive; inhibition [8]: Active; inhibition [4]: Active; inhibition [5]: Active
14 | Active | – | Active | Active | Active | Active | O=C(NCCSSCCNC(=O)/C(Cc1c[nH]c2ccc(OCc3ccccc3)cc12)=N/O)/C(Cc1c[nH]c2ccc(OCc3ccccc3)cc12)=N/O | inactive | Active | inhibition [6]: Active; inhibition [16]: Active; Activity (U-937 [14]): Active; inhibition [13]: Dose-dependent effect
15 | Active | inactive | – | – | – | – | O=C(NCCO)/C(Cc1c[nH]c2ccc(Br)cc12)=N/O | inactive | – | inhibition [16]: Active; inhibition [4]: inactive; inhibition [5]: inactive; inhibition [13]: Dose-dependent effect
16 | Active | – | Active | Active | Active | Active | COc1ccc2[nH]cc(C/C(=N\O)C(=O)NCCSSCCNC(=O)/C(Cc3c[nH]c4ccc(OC)cc34)=N/O)c2c1 | – | Active | Activity (U-937 [14]): Active
17 | Active | – | 40% | 20% | – | – | O=C(NCCCCCSSCCCCCNC(=O)/C(Cc1c[nH]c2ccc(Br)cc12)=N/O)/C(Cc1c[nH]c2ccc(Br)cc12)=N/O | – | – | –
18 | Active | Active | 40% | 20% | Active | Active | O=C(NCCSSCCNC(=O)/C(Cc1c[nH]c2ccccc12)=N/O)/C(Cc1c[nH]c2ccccc12)=N/O | inactive | – | inhibition [15]: Active
19 | Active | – | – | – | – | – | O=C(NCCSSCCNC(=O)/C(Cc1c[nH]c2cccc(Br)c12)=N/O)/C(Cc1c[nH]c2cccc(Br)c12)=N/O | – | – | –
